Structures can show the parent of a compound that is named as a salt.
What was measured:
Hep3B cells [1] = test: EPO produced in Hep3B cell culture medium under 1% oxygen, ELISA kit (Test Example 2); format: cell-based; settings: 24 hrs, 100 nM, control 8.1
Procedure: Hep3B cells were inoculated by 1×10^6 on each of 6 cm dishes, and then cultured for 24 hrs. As a culture medium, 3 mL of DMEM/10% FCS was used. The culture medium was exchanged and the compounds of each of Preparation Examples 13, 23, 29, 36, and 114 were added such that the content thereof was 100 nM final concentration, and they were transferred into the atmosphere of 1% oxygen at 37° C. for further 24 hrs culture thereof. The supernatant of the culture was recovered, and the amount of EPO was measured by ELISA kit (product of Roche Diagnostics) (two cases in each group). Further, cell extract was prepared and protein amount was determined, and corrected it as production amount per protein amount. As a control, groups not containing the compounds are prepared.

Hep3B cells [2] = test: EPO protein produced by Hep3B cells under hypoxia (1% O2), ELISA (Test Example 1); format: cell-based; settings: 1% O2, 24 hrs
Procedure: (§1) Hep3B cells producing EPO under hypoxic condition were used. The cells were inoculated onto a 100 mm petri dish by 1.5-3.0×10^6. As a culture medium, 10 ml of Dulbecco's Modified Eagles' Medium (DMEM)/10% Fetal Calf Serum (FCS) was used. The next day, the culture medium was exchanged, and compound of Preparation Example 13 (final concentration: 100 nM) was added, then cells were cultured under 1% O2 at 37° C. for 24 hrs. Groups were prepared in which IL-1β (final concentration: 15 U/ml) or TNF-α (final concentration: 220 U/ml), of which EPO production suppressing action is known (Faquin W C, Schneider T J, Goldgerg M A, Blood, 79(8): 1987-94 (1992)), were used solely or in combination with compound of Preparation Example 13 (final concentration: 100 nM). […] The amount of EPO in the supernatant obtained after the culture was measured by ELISA (each group; n=3). The enhancer site and promoter site (144 bp) of a human EPO gene were linked to luciferase reporter vector, which was used for measuring the EPO promoter activity. The EPO promoter activity was evaluated as follows.
(§2) The data obtained were analyzed and evaluated by Student's t-test.

anemia model mice = test: In vivo mice anemia model with IL-1β or TNF-α suppressed EPO production (Test Example 3); set-up: species or system mouse
Procedure: ICR mice (available from CLEA Japan Inc.) were made to be anemia by taking blood samples by 0.3 mL at a time from the orbital vein of the mouse by use of a heparin-coated microcapillary by 4 times in every 12 hours from 2 days before administering the agents. Further, 1.67×10^4 unit/day of mouse IL-1β (Roche Diagnostics) or 3.33×10^5 unit/day of mouse TNF-α (Roche Diagnostics) was injected intraperitoneally on day 0-3 (the first day of administration of agents was defined as […]) to induce a suppressed condition of EPO production. To these mice, Preparation Example 13 compound dissolved in 50% polyethylene glycol solution was administered orally by 1 or 3 mg/kg/day on day 0-5. As a control, 50% polyethylene glycol solution was administered (each group; n=7-15). On day 3 and 6, 0.3 mL of blood was collected, and hematocrit (Ht) value, hemoglobin (Hb) concentration (Celltac a: NIHON KOHDEN), EPO amount (ELISA kit: Roche Diagnostics) were measured. Also, the blood was stained by methylene-blue, and smears were prepared to calculate Reticulocytes value.

human EPO promoter = test: EPO promoter activity, luciferase reporter in Hep3B cells, 1% O2 vs 21% O2 (Test Example 1); format: cell-based; settings: 24 hrs
Procedure: as §1
1×10^6 Hep3B cells were inoculated on 30 mm petri dish (4 mL:DMEM/10% FCS), and a reporter gene (2 μg) as well as P-galactosidase gene (1 μg) as an internal standard were transfected into the cells by the lipofectin method. The next day, the culture medium was exchanged and the groups, whose group-composition was similar to the above (control group (containing no agents), IL-1β group (final concentration: 15 U/ml), TNF-α (final concentration: 220 U/ml), compound of Preparation Example 13 (final concentration: 100 nM), or a combination of compound of Preparation Example 13 and IL-1β or TNF-α) were cultured under 1% O2 or 21% O2 (as a control) at 37° C. for 24 hrs (for each group; n=4). The extract of the cells after cultured were prepared, then luciferase activity and β galactosidase activity were measured. The EPO promoter activity was expressed by the formula: […]
as §2

[3] = day 3, IL-1β mice, compound 1 mg/kg/day
[4] = day 3, IL-1β mice, compound 3 mg/kg/day
[5] = day 3, IL-1β mice, compound oral 1 mg/kg/day
[6] = day 3, IL-1β mice, compound oral 3 mg/kg/day
[7] = day 3, TNF-α mice, compound 1 mg/kg/day
[8] = day 3, TNF-α mice, compound 3 mg/kg/day
[9] = day 3, TNF-α mice, compound oral 1 mg/kg/day
[10] = day 3, TNF-α mice, compound oral 3 mg/kg/day
[11] = day 6, IL-1β mice, compound oral 1 mg/kg/day
[12] = day 6, IL-1β mice, compound oral 3 mg/kg/day
[13] = day 6, TNF-α mice, compound oral 1 mg/kg/day
[14] = day 6, TNF-α mice, compound oral 3 mg/kg/day

## COc1ccc(N(Cc2cncc(-c3cc(OC)c(OC)c(OC)c3)c2)C2CCN(Cc3ccnc(-c4cc(OC)c(OC)c(OC)c4)c3)CC2)cc1 [Preparation Example 13, 4-[N-(4-methoxyphenyl)-N-[[5-(3,4,5-trimethoxyphenyl)pyridin-3-yl]methyl]amino]1-[[2-(3,4,5-trimethoxyphenyl)pyridin-4-yl]methyl]piperidine Trihydrochloride]
Hep3B cells [1]
  Increasing action of EPO production (amount of EPO per protein amount): 18.2 mU/mg Protein
Hep3B cells [2]; compound 100 nM
  amount of the produced EPO protein relative to control: twice as much as the control
Hep3B cells [2]; compound 100 nM alone
  amount of the produced EPO protein: 829.8±119.0 mU/mg protein
Hep3B cells [2]; compound 100 nM in combination with IL-1β 15 U/ml
  amount of the produced EPO protein: 395.0±72.6 mU/mg protein
Hep3B cells [2]; compound 100 nM in combination with TNF-α 220 U/ml
  amount of the produced EPO protein: 284.8±24.2 mU/mg protein
Anemia model mice; [3]
  EPO amount in serum: 41.8±28.3 mU/mL
  reticulocyte value: 36.1±4.5%
Anemia model mice; [4]
  EPO amount in serum: 58.9±21.1 mU/mL
  reticulocyte value: 38.1±8.1%
Anemia model mice; [5]
  Hb amount: 12.7 ± 0.7 g/dL
  Ht value: 37.5±2.5%
Anemia model mice; [6]
  Hb amount: 12.6 ± 1.0 g/dL
  Ht value: 37.5±3.1%
Anemia model mice; [7]
  EPO amount in serum: 61.4±70.4 mU/mL
  reticulocyte value: 29.1±4.7%
Anemia model mice; [8]
  EPO amount in serum: 64.7±92.2 mU/mL
  reticulocyte value: 28.9±4.5%
Anemia model mice; [9]
  Hb amount: 12.8 ± 0.6 g/dL
  Ht value: 38.8±2.0%
Anemia model mice; [10]
  Hb amount: 13.1 ± 0.8 g/dL
  Ht value: 40.0±2.7%
Anemia model mice; [11]
  EPO amount in serum: 22.2±32.8 mU/mL
  Hb amount: 14.1 ± 1.1 g/dL
  Ht value: 42.6±2.5%
  reticulocyte value: 27.1±2.5%
Anemia model mice; [12]
  EPO amount in serum: 37.1±31.1 mU/mL
  Hb amount: 14.0 ± 0.9 g/dL
  Ht value: 43.3±2.8%
  reticulocyte value: 30.4±4.0%
Anemia model mice; [13]
  EPO amount in serum: 57.4±23.9 mU/mL
  Hb amount: 14.0 ± 0.6 g/dL
  Ht value: 43.3±2.5%
  reticulocyte value: 23.3±3.3%
Anemia model mice; [14]
  EPO amount in serum: 69.9±37.8 mU/mL
  Hb amount: 13.8 ± 0.5 g/dL
  Ht value: 43.2±2.2%
  reticulocyte value: 26.8±7.5%
Human EPO promoter; compound 100 nM alone
  human EPO promoter activity (HI): 46.1±5.9 fold
Human EPO promoter; compound 100 nM with IL-1β 15 U/ml
  human EPO promoter activity (HI): 45.5±7.1 fold
Human EPO promoter; compound 100 nM with TNF-α 220 U/ml
  human EPO promoter activity (HI): 49.5±5.4 fold

## COc1cc(OC)cc(N(Cc2ccnc(-c3cc(OC)c(OC)c(OC)c3)c2)C2CCN(Cc3ccnc(-c4cc(OC)c(OC)c(OC)c4)c3)CC2)c1 [Preparation Example 23, 4-[N-(3,5-dimethoxyphenyl)-N-[[2-(3,4,5-trimethoxyphenyl)pyridin-4-yl]methyl]amino]-1-[[2-(3,4,5-trimethoxyphenyl)pyridin-4-yl]methyl]piperidine Trihydrochloride]
Hep3B cells [1]
  Increasing action of EPO production (amount of EPO per protein amount): 13.9 mU/mg Protein

## COc1cc(-c2cc(CN3CCC(N(Cc4ccnc(-c5cc(OC)c(OC)c(OC)c5)c4)c4ccc5c(c4)OCO5)CC3)ccn2)cc(OC)c1OC [Preparation Example 29, 4-[N-(3,4-methylenedioxyphenyl)-N-[[2-(3,4,5-trimethoxyphenyl)pyridin-4-yl]methyl]amino]-1-[[2-(3,4,5-trimethoxyphenyl)pyridin-4-yl]methyl]piperidine Trihydrochloride]
Hep3B cells [1]
  Increasing action of EPO production (amount of EPO per protein amount): 10.5 mU/mg Protein

## COc1cc(-c2cc(CN3CCC(N(C)Cc4ccnc(-c5cc(OC)c(OC)c(OC)c5)c4)CC3)ccn2)cc(OC)c1OC [Preparation Example 36, 4-[N-methyl-N-[[2-(3,4,5-trimethoxyphenyl)pyridin-4-yl]methyl]amino]-1-[[2-(3,4,5-trimethoxyphenyl)pyridin-4-yl]methyl]piperidine Tetrahydrochloride]
Hep3B cells [1]
  Increasing action of EPO production (amount of EPO per protein amount): 10.0 mU/mg Protein

## COc1cc(-c2cncc(CN(c3ccc(SC)cc3)C3CCN(Cc4ccnc(-c5cc(OC)c(OC)c(OC)c5)c4)CC3)c2)cc(OC)c1OC [Preparation Example 114]
Hep3B cells [1]
  Increasing action of EPO production (amount of EPO per protein amount): 14.9 mU/mg Protein

## TNF-α
Hep3B cells [2]; TNF-α 220 U/ml alone
  amount of the produced EPO protein: 180.8±24.6 mU/mg protein
Anemia model mice; day 3, TNF-α i.p. alone (control 13.8±0.6)
  Hb amount: 12.6 ± 0.7 g/dL
Anemia model mice; day 3, TNF-α i.p. alone (control 23.7±31.0)
  EPO amount in serum: 2.7±4.6 mU/mL
Anemia model mice; day 3, TNF-α i.p. alone (control 32.1±4.4)
  reticulocyte value: 14.2±3.4%
Anemia model mice; day 3, TNF-α i.p. alone (control 42.2±3.6)
  Ht value: 38.3±2.5%
Anemia model mice; day 6, TNF-α i.p. alone (control 14.8±0.8)
  Hb amount: 13.1 ± 0.5 g/dL
Anemia model mice; day 6, TNF-α i.p. alone (control 16.3±3.1)
  reticulocyte value: 9.4±3.3%
Anemia model mice; day 6, TNF-α i.p. alone (control 24.8±33.8)
  EPO amount in serum: 3.3±6.0 mU/mL
Anemia model mice; day 6, TNF-α i.p. alone (control 46.4±2.9)
  Ht value: 41.6±1.8%
Human EPO promoter; TNF-α 220 U/ml alone
  human EPO promoter activity (HI): 20.7±4.1 fold

B1: IL-1β: "IL-1β (final concentration: 15 U/ml) ... of which EPO production suppressing action is known"; "mouse IL-1β (Roche Diagnostics)" in vivo (protein, UniProt P10749 118-269, looked up)
Interleukin-1 beta: VPIRQLHYRLRDEQQKSLVLSDPYELKALHLNGQNINQQVIFSMSFVQGEPSNDKIPVALGLKGKNLYLSCVMKDGTPTLQLESVDPKQYPKKKMEKRFVFNKIEVKSKVEFESAEFPNWYISTSQAEHKPVFLGNNSGQDIIDFTMESVSS
Hep3B cells [2]; IL-1β 15 U/ml alone
  amount of the produced EPO protein: 233.3±19.4 mU/mg protein
Anemia model mice; day 3, IL-1β i.p. alone (control 13.8±0.6)
  Hb amount: 12.3 ± 0.8 g/dL
Anemia model mice; day 3, IL-1β i.p. alone (control 23.7±31.0)
  EPO amount in serum: 5.9±14.3 mU/mL
Anemia model mice; day 3, IL-1β i.p. alone (control 32.1±4.4)
  reticulocyte value: 15.4±3.5%
Anemia model mice; day 3, IL-1β i.p. alone (control 42.2±3.6)
  Ht value: 36.0±3.0%
Anemia model mice; day 6, IL-1β i.p. alone (control 14.8±0.8)
  Hb amount: 13.5 ± 0.5 g/dL
Anemia model mice; day 6, IL-1β i.p. alone (control 16.3±3.1)
  reticulocyte value: 12.2±2.0%
Anemia model mice; day 6, IL-1β i.p. alone (control 24.8±33.8)
  EPO amount in serum: 2.9±5.0 mU/mL
Anemia model mice; day 6, IL-1β i.p. alone (control 46.4±2.9)
  Ht value: 40.9±1.5%
Human EPO promoter; IL-1β 15 U/ml alone
  human EPO promoter activity (HI): 19.9±6.5 fold

Source: US20090143430A1, “ERYTHROPOIETIN PRODUCTION ACCELERATOR” (Kowa Co., Ltd., priority 2002, published 2009)
